Source: ChEMBL document CHEMBL5724806, “Unraveling interindividual differences and functional consequences of gut microbial metabolism of immunosuppressants” (2024)

Key:
Format in all cases: ADME
[1] = The drug is tested on Capnocytophaga ochracea strain: DSM7271 for biotransformation under microaerobic condition. The drug concentrations were measured over 6 timepoints collected between 0 and 12 hours of incubation by liquid-chromatography-coupled mass spectrometry (LC–MS); design: dose 5 uM, timepoint 0, 1.5, 3, 6, 9, 12 hours; conditions: 5 µM
[2] = The drug is tested on Actinomyces naeslundi strain: DSM43013 for biotransformation under microaerobic condition. The drug concentrations were measured over 6 timepoints collected between 0 and 12 hours of incubation by liquid-chromatography-coupled mass spectrometry (LC–MS); design: dose 5 uM, timepoint 0, 1.5, 3, 6, 9, 12 hours; conditions: actinomyces naeslundii, 5 µM
[3] = The drug is tested on the gut metagenome community of P-02 with ENA study accession number: PRJEB31790 for biotransformation under microaerobic condition. The drug concentrations were measured over 7 timepoints collected between 0 and 12 hours of incubation by liquid-chromatography-coupled mass spectrometry (LC–MS); design: dose 5 uM, timepoint 0, 0.75, 1.5, 3, 6, 9, 12 hours; conditions: 5 µM
[4] = The drug is tested on Streptococcus mitis strain: DSM12643 for biotransformation under anaerobic condition. The drug concentrations were measured over 6 timepoints collected between 0 and 12 hours of incubation by liquid-chromatography-coupled mass spectrometry (LC–MS); design: dose 5 uM, timepoint 0, 1.5, 3, 6, 9, 12 hours; conditions: 5 µM
[5] = The drug is tested on the gut metagenome community of A-06 with ENA study accession number: PRJEB31790 for biotransformation under anaerobic condition. The drug concentrations were measured over 7 timepoints collected between 0 and 12 hours of incubation by liquid-chromatography-coupled mass spectrometry (LC–MS); design: dose 5 uM, timepoint 0, 0.75, 1.5, 3, 6, 9, 12 hours; conditions: 5 µM
[6] = The drug is tested on Streptococcus anginosus strain: DSM20563 for biotransformation under microaerobic condition. The drug concentrations were measured over 6 timepoints collected between 0 and 12 hours of incubation by liquid-chromatography-coupled mass spectrometry (LC–MS); design: dose 5 uM, timepoint 0, 1.5, 3, 6, 9, 12 hours; conditions: 5 µM
[7] = The drug is tested on Blautia hansenii strain: DSM20583 for biotransformation under anaerobic condition. The drug concentrations were measured over 6 timepoints collected between 0 and 12 hours of incubation by liquid-chromatography-coupled mass spectrometry (LC–MS); design: dose 5 uM, timepoint 0, 1.5, 3, 6, 9, 12 hours; conditions: 5 µM
[8] = The drug is tested on the gut metagenome community of P-02 with ENA study accession number: PRJEB31790 for biotransformation under anaerobic condition. The drug concentrations were measured over 7 timepoints collected between 0 and 12 hours of incubation by liquid-chromatography-coupled mass spectrometry (LC–MS); design: dose 5 uM, timepoint 0, 0.75, 1.5, 3, 6, 9, 12 hours; conditions: 5 µM
[9] = The drug is tested on Bacteroides xylanisolvens strain: HM 722 for biotransformation under anaerobic condition. The drug concentrations were measured over 6 timepoints collected between 0 and 12 hours of incubation by liquid-chromatography-coupled mass spectrometry (LC–MS); design: dose 5 uM, timepoint 0, 1.5, 3, 6, 9, 12 hours; conditions: 5 µM
[10] = The drug is tested on Akkermansia muciniphila strain: DSM22959 for biotransformation under anaerobic condition. The drug concentrations were measured over 6 timepoints collected between 0 and 12 hours of incubation by liquid-chromatography-coupled mass spectrometry (LC–MS); design: dose 5 uM, timepoint 0, 1.5, 3, 6, 9, 12 hours; conditions: 5 µM
[11] = The drug is tested on Clostridium scindens strain: DSM5676 for biotransformation under anaerobic condition. The drug concentrations were measured over 6 timepoints collected between 0 and 12 hours of incubation by liquid-chromatography-coupled mass spectrometry (LC–MS); design: dose 5 uM, timepoint 0, 1.5, 3, 6, 9, 12 hours; conditions: 5 µM
[12] = The drug is tested on Faecalibacterium prausnitzii strain: DSM17677 for biotransformation under anaerobic condition. The drug concentrations were measured over 6 timepoints collected between 0 and 12 hours of incubation by liquid-chromatography-coupled mass spectrometry (LC–MS); design: dose 5 uM, timepoint 0, 1.5, 3, 6, 9, 12 hours; conditions: faecalibacterium duncaniae, 5 µM
[13] = The drug is tested on Lactobacillus reuteri strain: DSM20016 for biotransformation under microaerobic condition. The drug concentrations were measured over 6 timepoints collected between 0 and 12 hours of incubation by liquid-chromatography-coupled mass spectrometry (LC–MS); design: dose 5 uM, timepoint 0, 1.5, 3, 6, 9, 12 hours; conditions: limosilactobacillus reuteri, 5 µM
[14] = The drug is tested on Lactobacillus ruminis strain: ATCC25644 for biotransformation under microaerobic condition. The drug concentrations were measured over 6 timepoints collected between 0 and 12 hours of incubation by liquid-chromatography-coupled mass spectrometry (LC–MS); design: dose 5 uM, timepoint 0, 1.5, 3, 6, 9, 12 hours; conditions: ligilactobacillus ruminis, 5 µM
[15] = The drug is tested on Enterococcus faecalis strain: ATCC29212 for biotransformation under anaerobic condition. The drug concentrations were measured over 6 timepoints collected between 0 and 12 hours of incubation by liquid-chromatography-coupled mass spectrometry (LC–MS); design: dose 5 uM, timepoint 0, 1.5, 3, 6, 9, 12 hours; conditions: 5 µM
[16] = The drug is tested on the gut metagenome community of T-05 with ENA study accession number: PRJEB31790 for biotransformation under microaerobic condition. The drug concentrations were measured over 7 timepoints collected between 0 and 12 hours of incubation by liquid-chromatography-coupled mass spectrometry (LC–MS); design: dose 5 uM, timepoint 0, 0.75, 1.5, 3, 6, 9, 12 hours; conditions: 5 µM
[17] = The drug is tested on Alloscardovia omnicolens strain: DSM21503 for biotransformation under anaerobic condition. The drug concentrations were measured over 6 timepoints collected between 0 and 12 hours of incubation by liquid-chromatography-coupled mass spectrometry (LC–MS); design: dose 5 uM, timepoint 0, 1.5, 3, 6, 9, 12 hours; conditions: 5 µM
[18] = The drug is tested on Eubacterium eligens strain: DSM3376 for biotransformation under anaerobic condition. The drug concentrations were measured over 6 timepoints collected between 0 and 12 hours of incubation by liquid-chromatography-coupled mass spectrometry (LC–MS); design: dose 5 uM, timepoint 0, 1.5, 3, 6, 9, 12 hours; conditions: lachnospira eligens, 5 µM
[19] = The drug is tested on the gut metagenome community of P-04 with ENA study accession number: PRJEB31790 for biotransformation under anaerobic condition. The drug concentrations were measured over 7 timepoints collected between 0 and 12 hours of incubation by liquid-chromatography-coupled mass spectrometry (LC–MS); design: dose 5 uM, timepoint 0, 0.75, 1.5, 3, 6, 9, 12 hours; conditions: 5 µM
[20] = The drug is tested on the gut metagenome community of T-02 with ENA study accession number: PRJEB31790 for biotransformation under anaerobic condition. The drug concentrations were measured over 7 timepoints collected between 0 and 12 hours of incubation by liquid-chromatography-coupled mass spectrometry (LC–MS); design: dose 5 uM, timepoint 0, 0.75, 1.5, 3, 6, 9, 12 hours; conditions: 5 µM
[21] = The drug is tested on the gut metagenome community of T-03 with ENA study accession number: PRJEB31790 for biotransformation under microaerobic condition. The drug concentrations were measured over 7 timepoints collected between 0 and 12 hours of incubation by liquid-chromatography-coupled mass spectrometry (LC–MS); design: dose 5 uM, timepoint 0, 0.75, 1.5, 3, 6, 9, 12 hours; conditions: 5 µM
[22] = The drug is tested on Lactobacillus gasseri strain: DSM20243 for biotransformation under anaerobic condition. The drug concentrations were measured over 6 timepoints collected between 0 and 12 hours of incubation by liquid-chromatography-coupled mass spectrometry (LC–MS); design: dose 5 uM, timepoint 0, 1.5, 3, 6, 9, 12 hours; conditions: 5 µM
[23] = The drug is tested on Roseburia intestinalis strain: DSM14610 for biotransformation under anaerobic condition. The drug concentrations were measured over 6 timepoints collected between 0 and 12 hours of incubation by liquid-chromatography-coupled mass spectrometry (LC–MS); design: dose 5 uM, timepoint 0, 1.5, 3, 6, 9, 12 hours; conditions: 5 µM
[24] = The drug is tested on Eubacterium hallii strain: DSM3353 for biotransformation under anaerobic condition. The drug concentrations were measured over 6 timepoints collected between 0 and 12 hours of incubation by liquid-chromatography-coupled mass spectrometry (LC–MS); design: dose 5 uM, timepoint 0, 1.5, 3, 6, 9, 12 hours; conditions: anaerobutyricum hallii, 5 µM
[25] = The drug is tested on the gut metagenome community of A-06 with ENA study accession number: PRJEB31790 for biotransformation under microaerobic condition. The drug concentrations were measured over 7 timepoints collected between 0 and 12 hours of incubation by liquid-chromatography-coupled mass spectrometry (LC–MS); design: dose 5 uM, timepoint 0, 0.75, 1.5, 3, 6, 9, 12 hours; conditions: 5 µM
[26] = The drug is tested on Bacteroides thetaiotaomicron strain: DSM2079 for biotransformation under anaerobic condition. The drug concentrations were measured over 6 timepoints collected between 0 and 12 hours of incubation by liquid-chromatography-coupled mass spectrometry (LC–MS); design: dose 5 uM, timepoint 0, 1.5, 3, 6, 9, 12 hours; conditions: 5 µM

SMILES | Bacterial Biotransformation [1] | Bacterial Biotransformation [2] | Bacterial Biotransformation [3] | Bacterial Biotransformation [4] | Bacterial Biotransformation [5] | Bacterial Biotransformation [6] | Bacterial Biotransformation [7] | Bacterial Biotransformation [8] | Bacterial Biotransformation [9] | Bacterial Biotransformation [10] | Bacterial Biotransformation [11] | Bacterial Biotransformation [12] | Bacterial Biotransformation [13] | Bacterial Biotransformation [14] | Bacterial Biotransformation [15] | Bacterial Biotransformation [16] | Bacterial Biotransformation [17] | Bacterial Biotransformation [18] | Bacterial Biotransformation [19] | Bacterial Biotransformation [20] | further results
C[C@]12CCC(=O)C=C1CC[C@@H]1[C@@H]2C(=O)C[C@@]2(C)[C@H]1CC[C@]2(O)C(=O)CO [CORTISONE] | Compound NOT metabolized | Compound NOT metabolized | Compound metabolized | Compound NOT metabolized | Compound metabolized | Compound NOT metabolized | Compound NOT metabolized | Compound metabolized | Compound NOT metabolized | Compound NOT metabolized | Compound metabolized | Compound NOT metabolized | Compound NOT metabolized | Compound NOT metabolized | Compound NOT metabolized | Compound metabolized | Compound NOT metabolized | Compound NOT metabolized | Compound metabolized | Compound metabolized | Bacterial Biotransformation [21]: Compound NOT metabolized; Bacterial Biotransformation [22]: Compound NOT metabolized; Bacterial Biotransformation [23]: Compound NOT metabolized; Bacterial Biotransformation [24]: Compound NOT metabolized; Bacterial Biotransformation [25]: Compound metabolized; Bacterial Biotransformation [26]: Compound NOT metabolized
C[C@@H]1C[C@H]2[C@@H]3CCC4=CC(=O)C=C[C@]4(C)[C@@]3(F)[C@@H](O)C[C@]2(C)[C@@]1(O)C(=O)CO [DEXAMETHASONE] | Compound NOT metabolized | Compound NOT metabolized | Compound NOT metabolized | Compound NOT metabolized | Compound metabolized | Compound NOT metabolized | Compound NOT metabolized | Compound metabolized | Compound NOT metabolized | Compound NOT metabolized | Compound metabolized | Compound NOT metabolized | Compound NOT metabolized | Compound NOT metabolized | Compound NOT metabolized | Compound NOT metabolized | Compound NOT metabolized | Compound NOT metabolized | Compound NOT metabolized | Compound metabolized | Bacterial Biotransformation [21]: Compound NOT metabolized; Bacterial Biotransformation [22]: Compound NOT metabolized; Bacterial Biotransformation [23]: Compound NOT metabolized; Bacterial Biotransformation [24]: Compound NOT metabolized; Bacterial Biotransformation [25]: Compound metabolized; Bacterial Biotransformation [26]: Compound NOT metabolized
COc1ccc([C@@H]2Sc3ccccc3N(CCN(C)C)C(=O)[C@@H]2OC(C)=O)cc1 [DILTIAZEM] | Compound metabolized | Compound NOT metabolized | Compound metabolized | Compound NOT metabolized | Compound metabolized | Compound NOT metabolized | Compound NOT metabolized | Compound metabolized | Compound metabolized | Compound NOT metabolized | Compound NOT metabolized | Compound NOT metabolized | Compound NOT metabolized | Compound NOT metabolized | Compound NOT metabolized | Compound metabolized | Compound NOT metabolized | Compound NOT metabolized | Compound NOT metabolized | Compound NOT metabolized | Bacterial Biotransformation [21]: Compound NOT metabolized; Bacterial Biotransformation [22]: Compound NOT metabolized; Bacterial Biotransformation [23]: Compound NOT metabolized; Bacterial Biotransformation [24]: Compound NOT metabolized; Bacterial Biotransformation [25]: Compound metabolized; Bacterial Biotransformation [26]: Compound metabolized
